Data as given in PubChem BioAssay AID2060604 (Molecular Pharmacology Branch, DTP, NCI, 2025).

System: 379773-124-R-J2-PDC complex spheroids, viability % test/control
Experiment: Anticancer human tumor 379773-124-R-J2-PDC patient-derived endometrial carcinoma cell line growth inhibition [CLK]
Conditions: for IC50: curve of first compound; for viability, T/C: stronger effect = lower value; active means viability on the fitted dose curve at most 10% of control; inactive means the rest
Summary of the method: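 Multi-cell-type spheroids combined patient-derived tumor cells with HUVEC endothelial cells and human mesenchymal stem cells. Paired agents were dosed in half-log steps down from about clinical Cmax, or from 10 microM where Cmax was unknown.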
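Further: compound exposure lasted seven days before the viability readout.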
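Wherever viability, T/C is given: 100% = DMSO vehicle control wells.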

CC1(C)CCC(CN2CCN(c3ccc(C(=O)NS(=O)(=O)c4ccc(NCC5CCOCC5)c([N+](=O)[O-])c4)c(Oc4cnc5[nH]ccc5c4)c3)CC2)=C(c2ccc(Cl)cc2)C1 + CNC(=O)c1ccc(Nc2nc(OC3CCCC3)c3c(-c4ccc5nc(C)oc5c4)c[nH]c3n2)c(OC)c1
active: viability, T/C (second compound 0.0316 µM, first compound 10 µM) 0.9% | viability, T/C (second compound 0.1 µM, first compound 10 µM) 1.18% | viability, T/C (second compound 0.316 µM, first compound 10 µM) 1.34% | viability, T/C (second compound 3.16 µM, first compound 10 µM) 0.72%
< 31.6 nM: IC50 (second compound 0.1 µM) | IC50 (second compound 0.316 µM) | IC50 (second compound 1 µM) | IC50 (second compound 3.16 µM) | IC50 (second compound 10 µM)
inactive: viability, T/C (second compound 0.0316 µM, first compound 0.0316 µM) 68.1% | viability, T/C (second compound 0.0316 µM, first compound 0.1 µM) 79.2% | viability, T/C (second compound 0.0316 µM, first compound 0.316 µM) 76.3% | viability, T/C (second compound 0.0316 µM, first compound 1 µM) 83.6% | viability, T/C (second compound 0.0316 µM, first compound 3.16 µM) 70.9% | viability, T/C (second compound 0.1 µM, first compound 0.0316 µM) 42.1% | viability, T/C (second compound 0.1 µM, first compound 0.1 µM) 38.5% | viability, T/C (second compound 0.1 µM, first compound 0.316 µM) 33.8% | viability, T/C (second compound 0.1 µM, first compound 1 µM) 38.1% | viability, T/C (second compound 0.1 µM, first compound 3.16 µM) 32.5% | viability, T/C (second compound 0.316 µM, first compound 0.0316 µM) 35.6% | viability, T/C (second compound 0.316 µM, first compound 0.1 µM) 33.2% | viability, T/C (second compound 0.316 µM, first compound 0.316 µM) 33.7% | viability, T/C (second compound 0.316 µM, first compound 1 µM) 44.9% | viability, T/C (second compound 0.316 µM, first compound 3.16 µM) 32% | viability, T/C (second compound 1 µM, first compound 0.0316 µM) 32% | viability, T/C (second compound 1 µM, first compound 0.1 µM) 31.9% | viability, T/C (second compound 1 µM, first compound 0.316 µM) 30.8% | viability, T/C (second compound 1 µM, first compound 1 µM) 38.6% | viability, T/C (second compound 1 µM, first compound 3.16 µM) 28.6% | viability, T/C (second compound 1 µM, first compound 10 µM) 2.29% | viability, T/C (second compound 3.16 µM, first compound 0.0316 µM) 31.2% | viability, T/C (second compound 3.16 µM, first compound 0.1 µM) 33.2% | viability, T/C (second compound 3.16 µM, first compound 0.316 µM) 42% | viability, T/C (second compound 3.16 µM, first compound 1 µM) 31.2% | viability, T/C (second compound 3.16 µM, first compound 3.16 µM) 32.7% | viability, T/C (second compound 10 µM, first compound 0.0316 µM) 30.8% | viability, T/C (second compound 10 µM, first compound 0.1 µM) 25.5% | viability, T/C (second compound 10 µM, first compound 0.316 µM) 30.7% | viability, T/C (second compound 10 µM, first compound 1 µM) 32.7% | viability, T/C (second compound 10 µM, first compound 3.16 µM) 29.3% | viability, T/C (second compound 10 µM, first compound 10 µM) 1.59%
4460 nM: IC50 (second compound 0.0316 µM)
